According to patent publication US9180118B2, “Thiadiazolidinone derivatives” (University of Rochester, priority 2006, dated 2015):
pIC50: −log10 of the molar value. Like-named read-outs stand apart in the source and are kept apart here.

Columns and labels:
CD34+CD38− bcCML cells = format: cell-based; settings: Homo sapiens, 24 h
bcCML progenitor cells = assay: Methylcellulose colony assay, bcCML; format: cell-based, human; settings: 20 μM TDZD-8, 18 hours before plating, n=3
Protocol: Cells were then plated at 50,000 cells/ml in Methocult™ GF H4534 (1% methylcellulose in IMDM, 30% FBS, 1% BSA, 10^−4M 2-mercaptoethanol, 2 mM L-glutamine, 50 ng/ml rh stem cell factor, 10 ng/ml rh GM-CSF, 10 ng/ml rh IL-3-Stem Cell Technologies, Vancouver, B.C.) supplemented with 3 units/ml of erythropoietin and 50 ng/ml G-CSF (R&D Systems, Minneapolis, Minn.). Colonies were scored after 10-14 days of culture.

[1] = test system: normal CB cells (hematopoietic stem cells); assay: NOD/SCID xenotransplant engraftment of normal CB cells treated in culture; format: in vivo, human; settings: cells cultured 18 hours with 20 μM TDZD-8; n=3; NOD/SCID mice
Protocol: NOD/SCID (NOD.CB17-prdkdc scid/J) mice (Jackson Laboratories, Bar Harbor, Me.) were sub-lethally irradiated with 270 rad using a RadSource™ X-ray irradiator the day before transplantation. Cells to be assayed (AML or normal umbilical cord blood—CB) were injected via tail vein (5-10 million cells) in a final volume of 0.2 ml of PBS with 0.5% FBS. After 6-8 weeks, animals were sacrificed and BM was isolated.

[2] = test system: primary AML, ALL and CLL specimens; assay: Free thiol analysis by mBBr labeling, leukemia specimens; format: cell-based, human; settings: 20 μM TDZD-8, as early as 30 minutes after exposure
Protocol: (§1) C. […] Intracellular thiol levels were assessed by flow cytometry after labeling with 50 μM monobromobimane (molecular probes).

normal specimens = assay: Free thiol analysis by mBBr labeling, normal specimens; format: cell-based, human; settings: 20 μM TDZD-8
Protocol: as §1

K-562 = assay: NCI-60 screen; format: cell-based; settings: Homo sapiens
Description: (§2) In contrast the cell viability for normal specimens was 79.5% (n=13).

All other tumor lines = assay: NCI-60 screen, other lines; format: cell-based; settings: Homo sapiens; NCI-60, non-hematologic lines; read-out: concentration up to which no growth inhibition was shown
Description: as §2

ABL1 = ABL1 (Homo sapiens, UniProt P00519); assay: Kinase assay; format: biochemical
Protocol: (§3) Kinase Assays: Single point and titration assays are performed using protocols (or essentially using protocols) know in the art for kinase activity profiling against a battery of kinase targets, including, for example, those specifically delineated herein. Such assays include, for example, those available from commercial sources, contract research laboratories, and the like.

CHEK1 (CHK1) = CHEK1 (CHK1) (Homo sapiens, UniProt O14757); assay: Kinase assay; format: biochemical
Protocol: as §3

CSNK1G2 (CK1 gamma 2) = CSNK1G2 (CK1 gamma 2) (Homo sapiens, UniProt P78368); assay: Kinase assay; format: biochemical
Protocol: as §3

EPHA2 = EPHA2 (Homo sapiens, UniProt P29317); assay: Kinase assay; format: biochemical
Protocol: as §3

IRAK4 = IRAK4 (Homo sapiens, UniProt Q9NWZ3); assay: Kinase assay; format: biochemical
Protocol: as §3

Jak2 = Jak2 (Homo sapiens, UniProt O60674); assay: Kinase assay; format: biochemical; settings: TDZD-8 20 μM
Protocol: as §3

KIT = KIT (Homo sapiens, UniProt P10721); assay: Kinase assay; format: biochemical
Sequence of KIT (P10721 26-976): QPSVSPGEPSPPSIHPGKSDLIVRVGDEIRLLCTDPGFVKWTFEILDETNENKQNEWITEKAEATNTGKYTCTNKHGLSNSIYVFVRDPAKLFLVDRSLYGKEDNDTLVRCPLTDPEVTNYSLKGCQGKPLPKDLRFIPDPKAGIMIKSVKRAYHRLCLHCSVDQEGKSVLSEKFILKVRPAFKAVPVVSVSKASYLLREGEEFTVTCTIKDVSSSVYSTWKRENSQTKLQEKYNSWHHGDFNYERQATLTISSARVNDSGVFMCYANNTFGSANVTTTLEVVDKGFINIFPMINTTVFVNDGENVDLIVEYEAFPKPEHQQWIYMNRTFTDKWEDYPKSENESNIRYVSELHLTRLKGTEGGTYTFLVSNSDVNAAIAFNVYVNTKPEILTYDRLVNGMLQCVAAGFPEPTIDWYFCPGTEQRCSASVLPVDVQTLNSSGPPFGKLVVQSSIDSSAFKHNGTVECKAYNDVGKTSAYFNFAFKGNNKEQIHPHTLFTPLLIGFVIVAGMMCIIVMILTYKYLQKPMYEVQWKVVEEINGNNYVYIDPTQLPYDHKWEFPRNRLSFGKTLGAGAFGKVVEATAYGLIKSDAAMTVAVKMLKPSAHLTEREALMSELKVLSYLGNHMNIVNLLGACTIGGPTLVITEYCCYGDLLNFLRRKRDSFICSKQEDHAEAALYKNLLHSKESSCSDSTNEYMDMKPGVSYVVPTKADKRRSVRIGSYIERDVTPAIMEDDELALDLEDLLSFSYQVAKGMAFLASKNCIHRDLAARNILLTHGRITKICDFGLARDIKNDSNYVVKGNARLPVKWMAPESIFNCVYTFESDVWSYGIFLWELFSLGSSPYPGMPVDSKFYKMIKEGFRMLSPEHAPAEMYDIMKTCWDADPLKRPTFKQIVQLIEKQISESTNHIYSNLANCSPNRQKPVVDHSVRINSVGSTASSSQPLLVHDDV
Protocol: as §3

LCK = LCK (Homo sapiens, UniProt P06239); assay: Kinase assay; format: biochemical
Protocol: as §3

MAP4K4 (HGK) = MAP4K4 (HGK) (Homo sapiens, UniProt O95819); assay: Kinase assay; format: biochemical
Sequence of MAP4K4 (HGK) (O95819 whole entry): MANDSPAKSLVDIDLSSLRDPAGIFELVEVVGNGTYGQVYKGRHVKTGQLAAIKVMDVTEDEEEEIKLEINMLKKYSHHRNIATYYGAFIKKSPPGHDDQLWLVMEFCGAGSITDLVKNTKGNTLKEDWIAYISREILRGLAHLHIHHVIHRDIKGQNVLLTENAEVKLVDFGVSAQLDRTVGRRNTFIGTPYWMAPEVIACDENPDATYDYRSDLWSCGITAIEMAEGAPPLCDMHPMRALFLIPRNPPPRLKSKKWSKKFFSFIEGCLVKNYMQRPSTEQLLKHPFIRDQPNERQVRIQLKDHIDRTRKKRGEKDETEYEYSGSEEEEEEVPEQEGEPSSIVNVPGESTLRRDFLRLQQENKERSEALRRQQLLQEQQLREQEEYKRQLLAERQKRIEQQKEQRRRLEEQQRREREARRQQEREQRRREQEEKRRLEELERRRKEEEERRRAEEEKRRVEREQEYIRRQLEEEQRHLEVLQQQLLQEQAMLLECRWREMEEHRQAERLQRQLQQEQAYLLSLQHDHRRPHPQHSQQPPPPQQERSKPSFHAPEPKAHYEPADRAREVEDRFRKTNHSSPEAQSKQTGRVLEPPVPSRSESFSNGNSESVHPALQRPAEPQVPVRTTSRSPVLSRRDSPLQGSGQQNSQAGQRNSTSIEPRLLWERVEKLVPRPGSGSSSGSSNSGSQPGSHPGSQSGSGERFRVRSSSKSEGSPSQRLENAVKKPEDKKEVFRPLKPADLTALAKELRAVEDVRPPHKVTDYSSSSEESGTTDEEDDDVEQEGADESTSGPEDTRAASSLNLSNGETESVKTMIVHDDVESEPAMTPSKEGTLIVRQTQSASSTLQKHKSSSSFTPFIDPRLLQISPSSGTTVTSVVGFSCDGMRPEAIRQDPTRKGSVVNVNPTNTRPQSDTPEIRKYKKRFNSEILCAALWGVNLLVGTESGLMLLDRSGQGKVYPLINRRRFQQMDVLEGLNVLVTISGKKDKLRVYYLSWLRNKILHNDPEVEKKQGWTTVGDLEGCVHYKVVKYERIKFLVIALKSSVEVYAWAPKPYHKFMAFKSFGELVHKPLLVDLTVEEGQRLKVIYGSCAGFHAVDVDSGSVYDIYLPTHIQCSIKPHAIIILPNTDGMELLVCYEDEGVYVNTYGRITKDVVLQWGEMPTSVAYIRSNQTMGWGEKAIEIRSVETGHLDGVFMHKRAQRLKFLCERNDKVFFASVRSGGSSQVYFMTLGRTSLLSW
Protocol: as §3

MAPK3 (ERK1) = MAPK3 (ERK1) (Homo sapiens, UniProt P27361); assay: Kinase assay; format: biochemical
Protocol: as §3

MAPKAPK2 = MAPKAPK2 (Homo sapiens, UniProt P49137); assay: Kinase assay; format: biochemical
Protocol: as §3

NTRK1 (TRKA) = NTRK1 (TRKA) (Homo sapiens, UniProt P04629); assay: Kinase assay; format: biochemical
Protocol: as §3

PDGFRB (PDGFR beta) = PDGFRB (PDGFR beta) (Homo sapiens, UniProt P09619); assay: Kinase assay; format: biochemical
Sequence of PDGFRB (PDGFR beta) (P09619 33-1106): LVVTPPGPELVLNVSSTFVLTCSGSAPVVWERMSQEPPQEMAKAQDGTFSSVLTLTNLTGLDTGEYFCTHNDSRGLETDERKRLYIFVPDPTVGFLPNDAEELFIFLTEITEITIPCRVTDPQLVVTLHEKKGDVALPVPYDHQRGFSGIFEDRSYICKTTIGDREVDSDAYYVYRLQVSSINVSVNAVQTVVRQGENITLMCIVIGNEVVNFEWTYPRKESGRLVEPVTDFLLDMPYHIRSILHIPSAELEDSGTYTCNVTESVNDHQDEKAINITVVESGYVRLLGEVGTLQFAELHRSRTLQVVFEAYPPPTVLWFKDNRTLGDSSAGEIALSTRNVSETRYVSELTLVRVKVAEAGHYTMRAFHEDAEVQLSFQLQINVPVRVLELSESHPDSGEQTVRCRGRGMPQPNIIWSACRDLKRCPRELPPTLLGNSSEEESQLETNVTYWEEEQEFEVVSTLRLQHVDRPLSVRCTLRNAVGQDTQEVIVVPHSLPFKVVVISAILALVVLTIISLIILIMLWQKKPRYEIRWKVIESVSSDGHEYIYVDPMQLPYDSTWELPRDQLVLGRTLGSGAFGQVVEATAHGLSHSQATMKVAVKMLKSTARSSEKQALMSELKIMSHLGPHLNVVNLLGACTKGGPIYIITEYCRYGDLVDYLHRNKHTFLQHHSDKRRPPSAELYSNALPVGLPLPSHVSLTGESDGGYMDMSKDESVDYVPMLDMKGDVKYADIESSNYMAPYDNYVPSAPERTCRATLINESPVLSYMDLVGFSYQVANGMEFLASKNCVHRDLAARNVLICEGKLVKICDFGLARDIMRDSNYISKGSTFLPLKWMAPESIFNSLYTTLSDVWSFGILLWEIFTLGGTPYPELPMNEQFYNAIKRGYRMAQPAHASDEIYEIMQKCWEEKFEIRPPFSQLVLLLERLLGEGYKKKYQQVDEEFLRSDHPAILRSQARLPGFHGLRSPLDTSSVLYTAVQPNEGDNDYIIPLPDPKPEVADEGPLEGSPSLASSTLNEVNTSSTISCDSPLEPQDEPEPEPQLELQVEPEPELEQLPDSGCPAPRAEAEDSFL
Protocol: as §3

PHKG2 = PHKG2 (Homo sapiens, UniProt P15735); assay: Kinase assay; format: biochemical
Protocol: as §3

PRKCB2 (PKC beta II) = PRKCB2 (PKC beta II) (Homo sapiens, UniProt P05771); assay: Kinase assay; format: biochemical
Sequence of PRKCB2 (PKC beta II) (P05771 1-673 isoform P05771-2): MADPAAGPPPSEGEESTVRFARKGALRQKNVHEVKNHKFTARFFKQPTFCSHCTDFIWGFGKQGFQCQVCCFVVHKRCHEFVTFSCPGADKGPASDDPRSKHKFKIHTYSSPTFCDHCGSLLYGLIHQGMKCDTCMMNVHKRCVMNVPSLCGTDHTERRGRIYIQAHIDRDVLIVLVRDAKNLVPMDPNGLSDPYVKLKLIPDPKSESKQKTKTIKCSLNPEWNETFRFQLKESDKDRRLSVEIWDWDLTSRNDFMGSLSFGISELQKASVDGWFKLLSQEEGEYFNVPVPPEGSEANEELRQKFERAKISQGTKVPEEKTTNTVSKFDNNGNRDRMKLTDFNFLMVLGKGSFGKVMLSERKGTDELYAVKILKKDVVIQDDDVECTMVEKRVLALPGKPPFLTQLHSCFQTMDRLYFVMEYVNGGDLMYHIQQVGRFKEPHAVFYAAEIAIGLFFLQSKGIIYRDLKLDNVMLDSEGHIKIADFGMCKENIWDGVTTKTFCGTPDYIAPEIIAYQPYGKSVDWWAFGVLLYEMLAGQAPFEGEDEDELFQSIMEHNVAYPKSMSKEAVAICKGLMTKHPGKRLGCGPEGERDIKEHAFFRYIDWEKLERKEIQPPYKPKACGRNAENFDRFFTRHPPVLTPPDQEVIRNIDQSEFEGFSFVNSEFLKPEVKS
Protocol: as §3

PRKCH (PKC eta) = PRKCH (PKC eta) (Homo sapiens, UniProt P24723); assay: Kinase assay; format: biochemical
Protocol: as §3

PRKCN (PKD3) = PRKCN (PKD3) (Homo sapiens, UniProt O94806); assay: Kinase assay; format: biochemical
Protocol: as §3

PRKCQ (PKC theta) = PRKCQ (PKC theta) (Homo sapiens, UniProt Q04759); assay: Kinase assay; format: biochemical
Protocol: as §3

PRKD1 (PKC mu) = PRKD1 (PKC mu) (Homo sapiens, UniProt Q15139); assay: Kinase assay; format: biochemical
Protocol: as §3

RET = RET (Homo sapiens, UniProt P07949); assay: Kinase assay; format: biochemical
Protocol: as §3

RPS6KA3 (RSK2) = RPS6KA3 (RSK2) (Homo sapiens, UniProt P51812); assay: Kinase assay; format: biochemical
Protocol: as §3

SRC = SRC (Homo sapiens, UniProt P12931); assay: Kinase assay; format: biochemical
Sequence of SRC (P12931 whole entry, species assumed): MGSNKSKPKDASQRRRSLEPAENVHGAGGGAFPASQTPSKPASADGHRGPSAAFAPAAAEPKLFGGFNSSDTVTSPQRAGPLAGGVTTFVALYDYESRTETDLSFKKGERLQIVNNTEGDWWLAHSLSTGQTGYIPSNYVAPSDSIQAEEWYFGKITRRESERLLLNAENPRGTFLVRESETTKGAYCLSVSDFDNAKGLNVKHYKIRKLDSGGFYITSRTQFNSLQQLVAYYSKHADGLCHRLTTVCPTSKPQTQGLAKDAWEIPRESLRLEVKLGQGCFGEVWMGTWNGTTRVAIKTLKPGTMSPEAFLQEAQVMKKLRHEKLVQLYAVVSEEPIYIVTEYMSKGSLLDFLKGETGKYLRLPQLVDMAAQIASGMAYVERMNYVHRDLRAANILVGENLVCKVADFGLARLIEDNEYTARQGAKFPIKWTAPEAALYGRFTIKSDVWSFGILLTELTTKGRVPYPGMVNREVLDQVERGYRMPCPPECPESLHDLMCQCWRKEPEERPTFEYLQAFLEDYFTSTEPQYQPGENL
Protocol: as §3

CDK1/cyclin B = CDK1/cyclin B (Homo sapiens, UniProt P06493); settings: reported; cited from earlier work
CK-II = CK-II (Homo sapiens, UniProt P68400); settings: reported; cited from earlier work
Sequence of CK-II (P68400 whole entry): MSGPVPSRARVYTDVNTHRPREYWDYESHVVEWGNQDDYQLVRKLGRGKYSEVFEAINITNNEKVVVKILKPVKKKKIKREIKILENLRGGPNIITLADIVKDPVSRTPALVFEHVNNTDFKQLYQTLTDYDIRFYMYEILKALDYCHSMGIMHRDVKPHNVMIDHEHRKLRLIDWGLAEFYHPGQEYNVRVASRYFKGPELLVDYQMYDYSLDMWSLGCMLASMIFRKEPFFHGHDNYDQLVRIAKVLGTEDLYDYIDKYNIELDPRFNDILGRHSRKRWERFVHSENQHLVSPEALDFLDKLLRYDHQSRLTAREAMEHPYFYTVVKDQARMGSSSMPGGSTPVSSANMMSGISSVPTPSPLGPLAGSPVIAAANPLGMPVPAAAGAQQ

PKC = settings: reported; cited from earlier work

Cn1sc(=O)n(Cc2ccccc2)c1=O [TDZD-8, 4-benzyl-2-methyl-1,2,4-thiadiazolidine-3,5-dione]
viability at 20 µM (CD34+CD38− bcCML cells): 2.8%
CFU, normalized to untreated controls (bcCML progenitor cells): 16.1%
effect on the engraftment of normal specimens [1]: little to no effect
mBBr labeling (free thiol groups) [2]: reduction in mBBr labeling is evident
mBBr staining (free thiol groups) (normal specimens): only slight changes in mBBr staining
GI50 (K-562; K562, read-out: GI50): 6.5 µM
GI50 (K-562; K562, read-out: Log10 GI50 (converted)): 6.46 µM
pIC50 (All other tumor lines): < 4.00
inhibition at 20 µM (ABL1): 70%
inhibition at 20 µM (CHEK1 (CHK1)): 87%
inhibition at 20 µM (CSNK1G2 (CK1 gamma 2)): 22%
inhibition at 20 µM (EPHA2): 3%
inhibition at 20 µM (IRAK4): 8%
inhibition (Jak2): little to no inhibition
inhibition at 20 µM (KIT): -6%
% Inhibition mean (KIT; TDZD-8 20 μM): little to no inhibition
inhibition at 20 µM (LCK): -9%
inhibition at 20 µM (MAP4K4 (HGK)): 99%
inhibition at 20 µM (MAPK3 (ERK1)): 61%
inhibition at 20 µM (MAPKAPK2): 99%
inhibition at 20 µM (NTRK1 (TRKA)): -9%
inhibition at 20 µM (PDGFRB (PDGFR beta)): -4%
% Inhibition mean (PDGFRB (PDGFR beta); TDZD-8 20 μM): little to no inhibition
inhibition at 20 µM (PHKG2): 80%
inhibition at 20 µM (PRKCB2 (PKC beta II)): 99%
inhibition at 20 µM (PRKCH (PKC eta)): 104%
inhibition at 20 µM (PRKCN (PKD3)): 94%
inhibition at 20 µM (PRKCQ (PKC theta)): 101%
inhibition at 20 µM (PRKD1 (PKC mu)): 97%
inhibition at 20 µM (RET): 34%
inhibition at 20 µM (RPS6KA3 (RSK2)): 101%
inhibition at 20 µM (SRC): 27%
% Inhibition mean (SRC; TDZD-8 20 μM): little to no inhibition
pIC50 (CDK1/cyclin B): < 4.00
pIC50 (CK-II): < 4.00
pIC50 (PKC): < 4.00
